System: patients with advanced solid tumors
Experiment: Phase I trial: safety, tolerability, DLT, MTD (CTCAE v4.0)
Type: in vivo
Description: Eligible patients had at least one measurable lesion per RECIST v 1.1, Eastern Cooperative Oncology Group (ECOG) performance status of 0 or 1, and adequate hematological, renal, cardiac and hepatic functions. The primary objectives were to assess safety and tolerability as well as to determine the MTD, DLT, and dose recommended for further study. The secondary objectives were to assess the PK and preliminary efficacy of CT053PTSA.
An initial accelerated titration design was used in the 15 and 30 mg QD cohorts, and the “3+3” schema was used starting in the 60 mg QD cohort. […] The study protocol was approved by an institutional review board at Sun Yat-sen University Cancer Center. Written informed consent was obtained from all the patients before enrollment.
Descriptive statistics of safety are presented per CTCAE v4.0. Subjects who received at least one dose of CT053PTSA were considered eligible to be evaluated and included in safety analyses. […] According to the RECIST 1.1 criteria, imaging examinations were performed at each specified time point in the protocol. The antitumor activity was measured by RECIST1.1.

In the case of `Cc1c(C(=O)Nc2ccc(Oc3ccnc4cc(OCC(C)(C)O)ccc34)c(F)c2)c(=O)n(-c2ccccc2)n1C` [CT053PTSA], the “Anaemia, All” value (15mg (n = 1)) was 0 n (%), the “Anaemia, ≥ G3” value (15mg (n = 1)) was 0 n (%) and the “Blood chloride decreased, All” value (15mg (n = 1)) was 0 n (%). For the same compound, the “Blood chloride decreased, ≥ G3” value (15mg (n = 1)) was 0 n (%), the “Blood creatinine increased, All” value (15mg (n = 1)) was 0 n (%) and the “Blood creatinine increased, ≥ G3” value (15mg (n = 1)) was 0 n (%). The “Blood potassium decreased, All” value (15mg (n = 1)) was 0 n (%), the “Blood potassium decreased, ≥ G3” value (15mg (n = 1)) was 0 n (%) and the “Blood sodium decreased, All” value (15mg (n = 1)) was 0 n (%). The “Blood sodium decreased, ≥ G3” value (15mg (n = 1)) was 0 n (%), the “Blood uric acid increased, All” value (15mg (n = 1)) was 0 n (%) and the “Blood uric acid increased, ≥ G3” value (15mg (n = 1)) was 0 n (%). The “Decreased appetite, All” value (15mg (n = 1)) was 0 n (%), the “Decreased appetite, ≥ G3” value (15mg (n = 1)) was 0 n (%) and the “Diarrhea, All” value (15mg (n = 1)) was 0 n (%). The “Diarrhea, ≥ G3” value (15mg (n = 1)) was 0 n (%), the “Dizziness, All” value (15mg (n = 1)) was 0 n (%) and the “Dizziness, ≥ G3” value (15mg (n = 1)) was 0 n (%). For the same compound, the “Dry mouth, All” value (15mg (n = 1)) was 0 n (%), the “Dry mouth, ≥ G3” value (15mg (n = 1)) was 0 n (%) and the “Electrocardiogram QT prolonged, All” value (15mg (n = 1)) was 0 n (%). For the same compound, the “Electrocardiogram QT prolonged, ≥ G3” value (15mg (n = 1)) was 0 n (%), the “Electrolyte imbalance, All” value (15mg (n = 1)) was 0 n (%) and the “Electrolyte imbalance, ≥ G3” value (15mg (n = 1)) was 0 n (%). For the same compound, the “Hemoglobin decreased, All” value (15mg (n = 1)) was 0 n (%), the “Hemoglobin decreased, ≥ G3” value (15mg (n = 1)) was 0 n (%) and the “Hypertension, All” value (15mg (n = 1)) was 0 n (%). The “Hypertension, ≥ G3” value (15mg (n = 1)) was 0 n (%), the “Hyponatremia, All” value (15mg (n = 1)) was 0 n (%) and the “Hyponatremia, ≥ G3” value (15mg (n = 1)) was 0 n (%). The “Hypoparathyroidism, All” value (15mg (n = 1)) was 0 n (%), the “Hypoparathyroidism, ≥ G3” value (15mg (n = 1)) was 0 n (%) and the “Mouth ulceration, All” value (15mg (n = 1)) was 0 n (%). The “Mouth ulceration, ≥ G3” value (15mg (n = 1)) was 0 n (%), the “Nausea, All” value (15mg (n = 1)) was 0 n (%) and the “Nausea, ≥ G3” value (15mg (n = 1)) was 0 n (%). For the same compound, the “Oropharyngeal pain, All” value (15mg (n = 1)) was 0 n (%), the “Oropharyngeal pain, ≥ G3” value (15mg (n = 1)) was 0 n (%) and the “Pain, All” value (15mg (n = 1)) was 0 n (%). The “Pain, ≥ G3” value (15mg (n = 1)) was 0 n (%), the “Palmar-plantar erythrodysaesthesia syndrome, All” value (15mg (n = 1)) was 0 n (%) and the “Palmar-plantar erythrodysaesthesia syndrome, ≥ G3” value (15mg (n = 1)) was 0 n (%). For the same compound, the “Platelet count decreased, All” value (15mg (n = 1)) was 0 n (%), the “Platelet count decreased, ≥ G3” value (15mg (n = 1)) was 0 n (%) and the “Proteinuria, All” value (15mg (n = 1)) was 0 n (%). The “Proteinuria, ≥ G3” value (15mg (n = 1)) was 0 n (%), the “Pyrexia, All” value (15mg (n = 1)) was 0 n (%) and the “Pyrexia, ≥ G3” value (15mg (n = 1)) was 0 n (%). The “Sinus bradycardia, All” value (15mg (n = 1)) was 0 n (%), the “Sinus bradycardia, ≥ G3” value (15mg (n = 1)) was 0 n (%) and the “Stomatitis, All” value (15mg (n = 1)) was 0 n (%). The “Stomatitis, ≥ G3” value (15mg (n = 1)) was 0 n (%), the “Vomiting, All” value (15mg (n = 1)) was 0 n (%) and the “Vomiting, ≥ G3” value (15mg (n = 1)) was 0 n (%). The “leukopenia, All” value (15mg (n = 1)) was 1 (100) n (%), the “leukopenia, ≥ G3” value (15mg (n = 1)) was 0 n (%) and the “neutropenia, All” value (15mg (n = 1)) was 0 n (%). The “neutropenia, ≥ G3” value (15mg (n = 1)) was 0 n (%), the “transaminase elevation, All” value (15mg (n = 1)) was 1 (100) n (%) and the “transaminase elevation, ≥ G3” value (15mg (n = 1)) was 0 n (%). For the same compound, the “Anaemia, All” value (30mg (n = 1)) was 0 n (%), the “Anaemia, ≥ G3” value (30mg (n = 1)) was 0 n (%) and the “Blood chloride decreased, All” value (30mg (n = 1)) was 0 n (%). For the same compound, the “Blood chloride decreased, ≥ G3” value (30mg (n = 1)) was 0 n (%), the “Blood creatinine increased, All” value (30mg (n = 1)) was 0 n (%) and the “Blood creatinine increased, ≥ G3” value (30mg (n = 1)) was 0 n (%). For the same compound, the “Blood potassium decreased, All” value (30mg (n = 1)) was 0 n (%), the “Blood potassium decreased, ≥ G3” value (30mg (n = 1)) was 0 n (%) and the “Blood sodium decreased, All” value (30mg (n = 1)) was 0 n (%). For the same compound, the “Blood sodium decreased, ≥ G3” value (30mg (n = 1)) was 0 n (%), the “Blood uric acid increased, All” value (30mg (n = 1)) was 0 n (%) and the “Blood uric acid increased, ≥ G3” value (30mg (n = 1)) was 0 n (%). The “Decreased appetite, All” value (30mg (n = 1)) was 1 (100) n (%), the “Decreased appetite, ≥ G3” value (30mg (n = 1)) was 0 n (%) and the “Diarrhea, All” value (30mg (n = 1)) was 0 n (%). The “Diarrhea, ≥ G3” value (30mg (n = 1)) was 0 n (%), the “Dizziness, All” value (30mg (n = 1)) was 0 n (%) and the “Dizziness, ≥ G3” value (30mg (n = 1)) was 0 n (%). For the same compound, the “Dry mouth, All” value (30mg (n = 1)) was 0 n (%), the “Dry mouth, ≥ G3” value (30mg (n = 1)) was 0 n (%) and the “Electrocardiogram QT prolonged, All” value (30mg (n = 1)) was 0 n (%). The “Electrocardiogram QT prolonged, ≥ G3” value (30mg (n = 1)) was 0 n (%), the “Electrolyte imbalance, All” value (30mg (n = 1)) was 0 n (%) and the “Electrolyte imbalance, ≥ G3” value (30mg (n = 1)) was 0 n (%). The “Hemoglobin decreased, All” value (30mg (n = 1)) was 0 n (%), the “Hemoglobin decreased, ≥ G3” value (30mg (n = 1)) was 0 n (%) and the “Hypertension, All” value (30mg (n = 1)) was 0 n (%). The “Hypertension, ≥ G3” value (30mg (n = 1)) was 0 n (%), the “Hyponatremia, All” value (30mg (n = 1)) was 1 (100) n (%) and the “Hyponatremia, ≥ G3” value (30mg (n = 1)) was 0 n (%). The “Hypoparathyroidism, All” value (30mg (n = 1)) was 0 n (%), the “Hypoparathyroidism, ≥ G3” value (30mg (n = 1)) was 0 n (%) and the “Mouth ulceration, All” value (30mg (n = 1)) was 0 n (%). The “Mouth ulceration, ≥ G3” value (30mg (n = 1)) was 0 n (%).

Reference: PMC9632963, “Preclinical characterization and phase I clinical trial of CT053PTSA targets MET, AXL, and VEGFR2 in patients with advanced solid tumors” (Frontiers in Immunology, 2022)
